Data: PMC11812216, “Multifunctional hyaluronic acid-based biomimetic/pH-responsive hybrid nanostructured lipid carriers for treating bacterial sepsis” (Journal of Biomedical Science, 2025)

What was measured:
[1] = molecular target: T1, Recombinant human TLR4 (Active ab233665) (Homo sapiens, UniProt O00206); assay: microscale thermophoresis, Blue-NHS-labelled TLR4; type: binding
T1 construct: commercial recombinant protein (Abcam), labelled with Blue-NHS dye; no MD-2 mentioned
From the text: microscale thermophoresis, Blue-NHS-labelled TLR4 on Recombinant human TLR4 (Active ab233665)

[2] = molecular target: T2, Recombinant human TLR2 (RPA663Hu03) (Homo sapiens, UniProt O60603); assay: microscale thermophoresis, His-tag-labelled TLR2; type: binding
T2 construct: commercial recombinant protein (Biocom Africa), His-tag labelled with Red-tris-NTA
From the text: microscale thermophoresis, His-tag-labelled TLR2 on Recombinant human TLR2 (RPA663Hu03)

T1 sequence (O00206 24-631 limits assumed): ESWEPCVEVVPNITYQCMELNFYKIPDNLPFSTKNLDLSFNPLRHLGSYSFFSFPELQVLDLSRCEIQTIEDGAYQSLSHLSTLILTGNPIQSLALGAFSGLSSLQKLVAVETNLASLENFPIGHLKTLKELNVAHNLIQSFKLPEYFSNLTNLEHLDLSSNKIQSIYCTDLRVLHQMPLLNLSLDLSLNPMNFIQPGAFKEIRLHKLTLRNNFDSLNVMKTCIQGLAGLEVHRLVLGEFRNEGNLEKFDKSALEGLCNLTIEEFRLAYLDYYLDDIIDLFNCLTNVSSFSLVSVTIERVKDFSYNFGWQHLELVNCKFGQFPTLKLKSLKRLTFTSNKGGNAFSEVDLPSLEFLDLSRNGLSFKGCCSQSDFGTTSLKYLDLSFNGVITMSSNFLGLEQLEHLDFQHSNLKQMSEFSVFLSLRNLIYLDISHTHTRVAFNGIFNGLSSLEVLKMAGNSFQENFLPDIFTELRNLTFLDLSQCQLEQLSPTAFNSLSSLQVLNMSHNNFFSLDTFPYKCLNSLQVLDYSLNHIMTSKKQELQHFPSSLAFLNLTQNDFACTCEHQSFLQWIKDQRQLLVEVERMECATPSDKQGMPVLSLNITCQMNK
T2 sequence (O60603 21-588 limits assumed): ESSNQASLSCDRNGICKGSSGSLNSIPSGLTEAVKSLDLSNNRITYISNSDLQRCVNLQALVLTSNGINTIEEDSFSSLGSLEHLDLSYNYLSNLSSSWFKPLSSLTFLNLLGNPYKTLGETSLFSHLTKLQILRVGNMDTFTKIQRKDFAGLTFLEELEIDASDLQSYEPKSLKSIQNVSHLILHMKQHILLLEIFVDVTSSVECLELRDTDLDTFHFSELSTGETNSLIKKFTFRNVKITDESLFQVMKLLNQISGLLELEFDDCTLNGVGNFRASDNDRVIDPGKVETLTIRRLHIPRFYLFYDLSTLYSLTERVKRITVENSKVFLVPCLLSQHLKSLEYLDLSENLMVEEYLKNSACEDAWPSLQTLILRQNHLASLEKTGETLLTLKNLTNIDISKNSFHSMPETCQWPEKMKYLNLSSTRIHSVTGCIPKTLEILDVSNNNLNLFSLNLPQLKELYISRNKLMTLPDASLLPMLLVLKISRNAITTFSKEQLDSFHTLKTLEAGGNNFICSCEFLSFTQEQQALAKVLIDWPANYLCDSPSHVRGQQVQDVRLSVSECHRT

In the case of `NCCCC[C@H](N)C(=O)O` [Lys], the Kd [1] is reported as 43.5 ± 2.35 µM and the Kd [2] is reported as 2.78 ± 0.74 µM.
